Reference: patent US20020106416A1, “Composition for inhibition of H. influenzae and treatment of otitis media and sore throat” (priority 1996, published 2002)

Experiment: Clinical evaluation of HHT888-10 in patients with otitis media or sore throat
Assay type: in vivo, human
Settings: sixth patient; initial treatment with Erythromycin, Bactrium, and Naproxen together
Protocol: The extract powder prepared in Example IB of Pogostemon cablin (HHT888-10) was administered orally to a patient with recurrent otitis media at a dosage of 2 g twice a day ( total 4 gms per day) for 3 days.
A sixth patient was treated for sore throat, headache and fever. […] On the fifth day, the patient was treated with HHT888-10 at 2 g b.i.d. p.o. for 2 days.

| Compound | fever and headache | sore throat |
| --- | --- | --- |
| CC[C@H]1OC(=O)[C@H](C)[C@@H](O[C@H]2C[C@@](C)(OC)[C@@H](O)[C@H](C)O2)[C@H](C)[C@@H](O[C@@H]2O[C@H](C)C[C@H](N(C)C)[C@H]2O)[C@](C)(O)C[C@@H](C)C(=O)[C@H](C)[C@@H](O)[C@]1(C)O [Erythromycin] | subsided | became worse |
| Bactrium | subsided | became worse |
| COc1ccc2cc([C@H](C)C(=O)O)ccc2c1 [Naproxen] | subsided | became worse |
